Holding throughout (assay type): cell-based
Experiment [1] concerns A549. As to the kind of experiment: Cancer cell viability, A549 (CellTiter-Glo). Particulars: Homo sapiens, 72 h, A549 cells, 3 days, read-out: Cellular IC50 (μM) A549. How it is done: Representative Compounds of the Disclosure were tested in A549 (Vendor: ATCC; Cat #CCL-185; Description: lung, carcinoma) and/or LK-2 (Vendor: Riken; Cat #RCB1970; Description: lung, squamous cell carcinoma) cellular viability assays according to the following general protocol. • 1. Observed the cells under microscope. • 2. Aspirated the media and added 5 mL trypsin and incubate for 3 mins. • 3. Added 10 mL fresh media and harvested all the cells in to 15 mL tubes. • 4. Centrifuged the cells at 1000 rpm for 5 mins. • 5. Re-suspended the cells with 11 mL media and took 1 mL to determine the cell number and viability. • 6. Prepared cells suspension at 20 K/mL (A549) or 35 K/mL (LK-2) • 7. Seeded the cells into 96-well plate and incubated for overnight. • 8. […] After 3 days, took out the plates from the incubator and observed the cells under microscope. • 10. Passed a film at the bottom of the plates. • 11. Equilibrated the plate and its contents at room temperature for approximately 30 minutes. • 12. Thawed the CellTiter-Glo® Buffer and equilibrated to room temperature prior to use. • 13. Equilibrated the lyophilized CellTiter-Glo® Substrate to room temperature prior to use. • 14. Transferred 100 ml of CellTiter-Glo® Buffer into the amber bottle containing CellTiter-Glo® Substrate to reconstituted the lyophilized enzyme/substrate mixture. • 15. Mixed by gently vortexing, swirling or inverting the contents to obtain a homogeneous solution. • 16. Added 100 μL CellTiter-Glo® Reagent into each well • 17. Mixed contents for 15 minutes on an orbital shaker to induce cell lysis. • 18. Recorded luminescence with EnSpire machine. • 19. Passed the raw data into the file and analyzed the data with XLfit software.

Experiment [2] concerns LK-2. Briefly: Cancer cell viability, LK-2 (CellTiter-Glo). Particulars: Homo sapiens, LK-2, 72 h, LK-2 cells, 3 days, read-out: Cellular IC50 (μM) LK-2. The method, then: Representative Compounds of the Disclosure were tested in A549 (Vendor: ATCC; Cat #CCL-185; Description: lung, carcinoma) and/or LK-2 (Vendor: Riken; Cat #RCB1970; Description: lung, squamous cell carcinoma) cellular viability assays according to the following general protocol. • 1. Observed the cells under microscope. • 2. Aspirated the media and added 5 mL trypsin and incubate for 3 mins. • 3. Added 10 mL fresh media and harvested all the cells in to 15 mL tubes. • 4. Centrifuged the cells at 1000 rpm for 5 mins. • 5. Re-suspended the cells with 11 mL media and took 1 mL to determine the cell number and viability. • 6. Prepared cells suspension at 20 K/mL (A549) or 35 K/mL (LK-2) • 7. Seeded the cells into 96-well plate and incubated for overnight. • 8. Added compounds into each well with a HPD300 machine (nine three-fold dilutions typically starting at 30 µM final concentration) and incubated for 3 days. • 9. After 3 days, took out the plates from the incubator and observed the cells under microscope. • 10. Passed a film at the bottom of the plates. • 11. Equilibrated the plate and its contents at room temperature for approximately 30 minutes. • 12. Thawed the CellTiter-Glo® Buffer and equilibrated to room temperature prior to use. • 13. Equilibrated the lyophilized CellTiter-Glo® Substrate to room temperature prior to use. • 14. Transferred 100 ml of CellTiter-Glo® Buffer into the amber bottle containing CellTiter-Glo® Substrate to reconstituted the lyophilized enzyme/substrate mixture. • 15. Mixed by gently vortexing, swirling or inverting the contents to obtain a homogeneous solution. • 16. Added 100 μL CellTiter-Glo® Reagent into each well • 17. Mixed contents for 15 minutes on an orbital shaker to induce cell lysis. • 18. Recorded luminescence with EnSpire machine. • 19. Passed the raw data into the file and analyzed the data with XLfit software.
(In general: Cellular ATP, detected with luciferase, serves as a proxy for viable cell number.)

In experiment [3] the target is T1, Nrf2 (Homo sapiens, UniProt Q16236).
T1 sequence (Q16236 1-605): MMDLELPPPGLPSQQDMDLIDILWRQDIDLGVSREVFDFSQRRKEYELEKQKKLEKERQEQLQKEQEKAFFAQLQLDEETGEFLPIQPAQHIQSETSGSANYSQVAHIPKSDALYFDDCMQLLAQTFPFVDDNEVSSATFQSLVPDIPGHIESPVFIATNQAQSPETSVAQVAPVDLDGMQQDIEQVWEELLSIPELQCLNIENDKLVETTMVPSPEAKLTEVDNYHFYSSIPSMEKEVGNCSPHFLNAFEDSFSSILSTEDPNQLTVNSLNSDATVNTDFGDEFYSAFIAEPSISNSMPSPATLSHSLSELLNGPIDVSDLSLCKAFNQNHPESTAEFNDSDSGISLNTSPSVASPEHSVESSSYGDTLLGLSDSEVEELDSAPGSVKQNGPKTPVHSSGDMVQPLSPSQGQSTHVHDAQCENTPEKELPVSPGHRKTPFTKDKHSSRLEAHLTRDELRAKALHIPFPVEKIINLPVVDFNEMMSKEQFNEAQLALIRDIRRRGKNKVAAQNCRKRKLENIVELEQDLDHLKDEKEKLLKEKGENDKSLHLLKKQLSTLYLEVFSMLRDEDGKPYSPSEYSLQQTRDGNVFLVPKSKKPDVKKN
As to the kind of experiment: Nrf2 degradation in A549 HiBiT-Nrf2 cells, Nano-Glo HiBiT lytic detection (HiBiT readout). Details: host or cells: A549 HiBiT-Nrf2 cells (engineered line bought from Promega). The method, then: A549 HiBiT-Nrf2 cells (Promega, Cat. No. CS3023219) were seeded into 384-well plates at cell density of 5,000 cells/well in 40 μL of cell culture medium (Ham's F-12 Nutrient Mix supplemented with 10% FBS and 1% antibiotic-antimycotic).
The next day, cells were treated with representative Compounds of the Disclosure and incubated for 6 h and 20 h at 37° C., 5% CO2. Staurosporine was used as a control.
At the end of incubation Nrf2 degradation (HiBiT readout) and cell viability (CellTiter-Glo readout) were determined. For HiBiT readout, Nano-Glo HiBiT Reagent mix (Promega, Cat. No. N3050) was added to wells, plates were incubated 2 min on an orbital shaker and incubated at room temperature in the dark for additional 30 minutes. At the end of incubation luminescence was measured using ultrasensitive luminescence mode (Envision, Perkin Elmer).
(The HiBiT peptide binds its large partner to form an active luciferase.)

[4] abbreviates: 6 h, read-out: DC50 (nM) at 6 h.
Setting [5] is: 20 h, read-out: DC50 (nM) at 20 h.

For orientation: IC50 means the concentration that gives 50% inhibition. As a reminder, the DC50 is the concentration giving 50% degradation.

Read-outs that look alike come from different tables or passages of the source. Where only a bound is given, the exact number is not on record here.

Take `Cc1ccccc1C(=O)N1CCc2cc(-c3nc(NC(=O)Cc4cccc(OCCCNc5cccc6c5C(=O)N(C5CCC(=O)NC5=O)C6=O)c4)sc3C)ccc21` (stereo not shown) [Cpd. No. 6, 2-(3-(3-((2-(2,6-dioxopiperidin-3-yl)-1,3-dioxoisoindolin-4-yl)amino)propoxy)phenyl)-N-(5-methyl-4-(1-(2-methylbenzoyl)indolin-5-yl)thiazol-2-yl)acetamide]: the IC50 in experiment [1] and in experiment [2] was more than 30 µM throughout.

For the molecule `Cc1ccccc1C(=O)N1CCc2cc(-c3nc(NC(=O)Cc4cccc(OCCOCCOCCOc5ccc6c(c5)C(=O)N(C5CCC(=O)NC5=O)C6=O)c4)sc3C)ccc21` (stereo not shown) [Cpd. No. 19, 2-(3-(2-(2-(2-((2-(2,6-dioxopiperidin-3-yl)-1,3-dioxoisoindolin-5-yl)oxy)ethoxy)ethoxy)ethoxy)phenyl)-N-(5-methyl-4-(1-(2-methylbenzoyl)indolin-5-yl)thiazol-2-yl)acetamide], the IC50 in experiment [1] was 11 µM; in experiment [2], 2.5 µM.

For `CC(=O)N1CCc2cc(-c3nc(NC(=O)Cc4cccc(OCCCCCNc5cccc6c5C(=O)N(C5CCC(=O)NC5=O)C6=O)c4)sc3C)ccc21` (stereo not shown) [Cpd. No. 67, N-(4-(1-acetylindolin-5-yl)-5-methylthiazol-2-yl)-2-(3-((5-((2-(2,6-dioxopiperidin-3-yl)-1,3-dioxoisoindolin-4-yl)amino)pentyl)oxy)phenyl)acetamide], in experiment [1], the IC50 was 0.75 µM. For the same molecule, the DC50 in experiment [3] (setting [4]) and in experiment [3] (setting [5]) was less than 300 nM throughout.

Take `Cc1sc(NC(=O)Cc2cccc(OCCC3CCN(c4ccc5c(c4)C(=O)N(C4CCC(=O)NC4=O)C5=O)CC3)c2)nc1-c1ccc2c(c1)CCN2C(=O)C1CC1` (stereo not shown) [Cpd. No. 68, N-(4-(1-(cyclopropanecarbonyl)indolin-5-yl)-5-methylthiazol-2-yl)-2-(3-(2-(1-(2-(2,6-dioxopiperidin-3-yl)-1,3-dioxoisoindolin-5-yl)piperidin-4-yl)ethoxy)phenyl)acetamide]: the IC50 in experiment [1] was more than 30 µM. Also, the DC50 in experiment [3] (setting [5]) was less than 300 nM.

As to `Cc1sc(NC(=O)Cc2cccc(OCCCCCNc3cccc4c3CN(C3CCC(=O)NC3=O)C4=O)c2)nc1-c1ccc2c(c1)CCN2C(=O)C1CC1` (stereo not shown) [Cpd. No. 69, N-(4-(1-(cyclopropanecarbonyl)indolin-5-yl)-5-methylthiazol-2-yl)-2-(3-((5-((2-(2,6-dioxopiperidin-3-yl)-1-oxoisoindolin-4-yl)amino)pentyl)oxy)phenyl)acetamide], in experiment [1], the IC50 worked out at 0.18 µM. Further, the DC50 in experiment [3] (setting [4]) and in experiment [3] (setting [5]) was less than 300 nM throughout.

For `Cc1sc(NC(=O)Cc2cccc(OCCCCCCCCNc3cccc4c3C(=O)N(C3CCC(=O)NC3=O)C4=O)c2)nc1-c1ccc2c(c1)CCN2C(=O)C1CC1` (stereo not shown) [Cpd. No. 72, N-(4-(1-(cyclopropanecarbonyl)indolin-5-yl)-5-methylthiazol-2-yl)-2-(3-((8-((2-(2,6-dioxopiperidin-3-yl)-1,3-dioxoisoindolin-4-yl)amino)octyl)oxy)phenyl)acetamide], the IC50 in experiment [1] came out at 0.23 µM. In addition, the DC50 in experiment [3] (setting [5]) was more than 3000 nM.

With `Cc1ncccc1C(=O)N1CCc2cc(-c3nc(NC(=O)Cc4cccc(OCCOCCNc5cccc6c5C(=O)N(C5CCC(=O)NC5=O)C6=O)c4)sc3C)ccc21` (stereo not shown) [Cpd. No. 76, 2-(3-(2-(2-((2-(2,6-dioxopiperidin-3-yl)-1,3-dioxoisoindolin-4-yl)amino)ethoxy)ethoxy)phenyl)-N-(5-methyl-4-(1-(2-methylnicotinoyl)indolin-5-yl)thiazol-2-yl)acetamide], the IC50 in experiment [1] is 0.011 µM. In addition, the DC50 was more than 3000 nM in experiment [3] (setting [4]) and less than 300 nM in experiment [3] (setting [5]).

Consider `Cc1cnccc1C(=O)N1CCc2cc(-c3nc(NC(=O)Cc4cccc(OCCOCCNc5cccc6c5C(=O)N(C5CCC(=O)NC5=O)C6=O)c4)sc3C)ccc21` (stereo not shown) [Cpd. No. 77, 2-(3-(2-(2-((2-(2,6-dioxopiperidin-3-yl)-1,3-dioxoisoindolin-4-yl)amino)ethoxy)ethoxy)phenyl)-N-(5-methyl-4-(1-(3-methylisonicotinoyl)indolin-5-yl)thiazol-2-yl)acetamide], for which, in experiment [1], the IC50 was 0.0077 µM. Besides, the figures for the DC50 in experiment [3] (setting [4]) and in experiment [3] (setting [5]) were more than 3000 nM and less than 300 nM, respectively.

As for `Cc1ccncc1C(=O)N1CCc2cc(-c3nc(NC(=O)Cc4cccc(OCCOCCNc5cccc6c5C(=O)N(C5CCC(=O)NC5=O)C6=O)c4)sc3C)ccc21` (stereo not shown) [Cpd. No. 78, 2-(3-(2-(2-((2-(2,6-dioxopiperidin-3-yl)-1,3-dioxoisoindolin-4-yl)amino)ethoxy)ethoxy)phenyl)-N-(5-methyl-4-(1-(4-methylnicotinoyl)indolin-5-yl)thiazol-2-yl)acetamide], the IC50 in experiment [1] was 0.0059 µM. Also, the results for the DC50 in experiment [3] (setting [4]) and in experiment [3] (setting [5]) were more than 3000 nM and less than 300 nM, respectively.

With `Cc1cccnc1C(=O)N1CCc2cc(-c3nc(NC(=O)Cc4cccc(OCCOCCNc5cccc6c5C(=O)N(C5CCC(=O)NC5=O)C6=O)c4)sc3C)ccc21` (stereo not shown) [Cpd. No. 79, 2-(3-(2-(2-((2-(2,6-dioxopiperidin-3-yl)-1,3-dioxoisoindolin-4-yl)amino)ethoxy)ethoxy)phenyl)-N-(5-methyl-4-(1-(3-methylpicolinoyl)indolin-5-yl)thiazol-2-yl)acetamide], the 50% inhibitory concentration (IC50) in experiment [1] was determined as 0.043 µM. Moreover, the DC50 in experiment [3] (setting [4]) is more than 3000 nM; in experiment [3] (setting [5]), less than 300 nM.

In the case of `COc1ccncc1C(=O)N1CCc2cc(-c3nc(NC(=O)Cc4cccc(OCCOCCNc5cccc6c5C(=O)N(C5CCC(=O)NC5=O)C6=O)c4)sc3C)ccc21` (stereo not shown) [Cpd. No. 80, 2-(3-(2-(2-((2-(2,6-dioxopiperidin-3-yl)-1,3-dioxoisoindolin-4-yl)amino)ethoxy)ethoxy)phenyl)-N-(4-(1-(4-methoxynicotinoyl)indolin-5-yl)-5-methylthiazol-2-yl)acetamide], the IC50 in experiment [1] was determined as 0.075 µM. In addition, in experiment [3] (setting [4]), the DC50 was more than 3000 nM.

Values taken from US20260055097A9, “NRF2 PROTEIN DEGRADERS” (Ganymede Oncology, Inc., priority 2022, published 2026).
